Experimental data published in article PMC7114507 (Virus Research, 2010).

Molecular target: T1, recHE4 (Isavirus salaris, UniProt Q9J0Y0)
T1 sequence (Q9J0Y0 17-353): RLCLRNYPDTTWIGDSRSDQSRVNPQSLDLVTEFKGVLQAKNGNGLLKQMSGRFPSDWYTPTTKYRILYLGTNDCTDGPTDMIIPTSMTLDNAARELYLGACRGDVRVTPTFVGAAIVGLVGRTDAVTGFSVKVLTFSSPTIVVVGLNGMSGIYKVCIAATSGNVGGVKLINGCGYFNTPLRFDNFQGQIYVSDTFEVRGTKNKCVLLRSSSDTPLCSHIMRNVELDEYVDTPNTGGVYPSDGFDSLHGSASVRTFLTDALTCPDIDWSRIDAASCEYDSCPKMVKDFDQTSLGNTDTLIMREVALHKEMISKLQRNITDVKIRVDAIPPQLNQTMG
Assay: fluorescence acetylesterase assay, recHE on cobalt beads
Type: biochemical
Settings: 0-500 uM substrate, PBS pH 7.4, RT; bead-bound

Q: For `CC(=O)Oc1ccc2c(C)cc(=O)oc2c1` [4-methylumbelliferyl acetate], which “fluorescence acetylesterase assay, recHE on cobalt beads” value is on record?
A: The value was “recHE4 and recHE7 proteins exhibit similar acetylesterase activities with all substrate concentrations tested”.
